# Measurements: ChEMBL document CHEMBL3875187, “Structure-activity relationship study of a small cyclic peptide H-c[Lys-Pro-Glu]-Arg-OH: a potent inhibitor of Vascular Endothelial Growth Factor interaction with Neuropilin-1” (Bioorg Med Chem, 2017)
# Positions of bridges follow the written chain, without caps; N, C: chain ends. Non-standard residues stand in square brackets, D forms with d. Residues, ends and D or L forms follow the SMILES beside them. Orn = NCCC[C@H](N)C(=O)O
# Key:
# [1] = biological target: Neuropilin-1 (Rattus norvegicus) (UniProt Q9QWJ9); test: Inhibition of biotin labelled VEGF165 binding to rat recombinant NRP-1/Fc chimeric protein at 0.3 uM incubated for overnight by competitive ELISA method relative to control
# [2] = biological target: Neuropilin-1 (Rattus norvegicus, UniProt Q9QWJ9); test: Inhibition of biotin labelled VEGF165 binding to rat recombinant NRP-1/Fc chimeric protein incubated for overnight by competitive ELISA method
# [3] = biological target: Neuropilin-1 (Rattus norvegicus) (UniProt Q9QWJ9); test: Inhibition of biotin-labelled VEGF165 binding to rat recombinant NRP-1/Fc chimeric protein at 3 uM incubated for overnight by competitive ELISA method relative to control
# [4] = biological target: Neuropilin-1 (Rattus norvegicus) (UniProt Q9QWJ9); test: Inhibition of biotin-labelled VEGF165 binding to rat recombinant NRP-1/Fc chimeric protein at 10 uM incubated for overnight by competitive ELISA method relative to control
# [5] = biological target: Neuropilin-1 (Rattus norvegicus) (UniProt Q9QWJ9); test: Inhibition of biotin-labelled VEGF165 binding to rat recombinant NRP-1/Fc chimeric protein at 1 uM incubated for overnight by competitive ELISA method relative to control
# [6] = Cytotoxicity against HUVEC at 10 to 1000 uM measured after 24 to 96 hrs by MTS assay; format: toxicity, cell-based; settings: human
# [7] = Cytotoxicity against human MDA-MB-231 cells at 10 to 1000 uM measured after 24 to 96 hrs by MTS assay; format: toxicity, cell-based; settings: mda-mb-231, 1000 µM
SMILES,inhibition [1] [%],IC50 ([2]; read-out: IC50) [µM],IC50 ([2]; read-out: pIC50 (converted)) [µM],inhibition [3] [%],inhibition [4] [%],inhibition [5] [%],Activity [6],Activity [7]
N=C(N)NCCC[C@H](NC(=O)[C@@H]1CC(=O)NCCCC[C@H](N)C(=O)N2CCC[C@H]2C(=O)N1)C(=O)O (H-KPDR-OH; lactam 1-3),,> 10,,12.5,14.7,11.8,,
N=C(N)NCCC[C@H](NC(=O)[C@@H]1CCC(=O)NCCC[C@H](N)C(=O)N2CCC[C@H]2C(=O)N1)C(=O)O (H-[Orn]PER-OH; lactam 1-3),14.6,> 10,,35.4,46.6,27.8,,
N=C(N)NCCC[C@H](NC(=O)[C@@H]1CCC(=O)NCCCC[C@@H](N)C(=O)N2CCC[C@H]2C(=O)N1)C(=O)O (H-[dK]PER-OH; lactam 1-3),,> 10,,2.3,4,1.1,,

# Compounds with a lower IC50 ([2]; read-out: IC50), results first:
inhibition [1] [%],IC50 ([2]; read-out: IC50) [µM],IC50 ([2]; read-out: pIC50 (converted)) [µM],inhibition [3] [%],inhibition [4] [%],inhibition [5] [%],SMILES,Activity [6],Activity [7]
30.1,0.89,1,72.2,86.8,46.6,N=C(N)NCCC[C@H](NC(=O)CC[C@@H]1NC(=O)[C@H]2CCCN2C(=O)[C@@H](N)CCCCNC(=O)CC[C@@H](C(=O)N[C@@H](CCCNC(=N)N)C(=O)O)NC(=O)[C@H]2CCCN2C(=O)[C@H](CCCCN)NC1=O)C(=O)O,,
68.3,0.16,,85.4,89,79,N=C(N)NCCC[C@H](NC(=O)[C@@H]1CCCCNC(=O)CC[C@H](N)C(=O)N2CCC[C@H]2C(=O)N1)C(=O)O (H-EPKR-OH; lactam 1-3),Non-Toxic,Non-Toxic
